Results: paper PMC7949122 (The Journal of Biological Chemistry, 2021)
Each block holds one compound with its values, some of them ahead of it. Non-standard residues stand in square brackets, D forms with d. Residues, ends and D or L forms follow the SMILES beside them. No end group written: not given here. Hyp = O=C(O)[C@@H]1C[C@@H](O)CN1; 2Thi = N[C@@H](Cc1cccs1)C(=O)O; Gly(N-cHex) = O=C(O)CNC1CCCCC1

Assays:
[1] = target: T1, mutant human B2R(Ø) lacking AltB2R expression (Homo sapiens, UniProt P30411); test: Competitive displacement of [3H]-BK binding, living B2R(Ø)-transfected HEK293A cells; conditions: n = 3
T1 construct: expressed in transfected cells; host or cells: HEK293A
T1 sequence (P30411 1-391): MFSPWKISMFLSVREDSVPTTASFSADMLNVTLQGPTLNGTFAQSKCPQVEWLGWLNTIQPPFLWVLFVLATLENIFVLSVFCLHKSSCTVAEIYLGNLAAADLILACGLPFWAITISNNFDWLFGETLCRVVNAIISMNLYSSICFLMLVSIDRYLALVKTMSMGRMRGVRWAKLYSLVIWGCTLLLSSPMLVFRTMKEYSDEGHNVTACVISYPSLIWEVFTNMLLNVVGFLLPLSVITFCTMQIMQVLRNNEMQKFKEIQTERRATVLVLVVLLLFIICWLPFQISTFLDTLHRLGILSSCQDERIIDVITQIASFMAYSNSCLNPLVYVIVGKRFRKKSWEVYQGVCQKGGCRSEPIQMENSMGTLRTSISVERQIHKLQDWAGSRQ
Method: Black and gray, negative controls with secondary antibodies only; blue, ^FlagB2R transfected cells; red, ^FlagB2R^(Ø) transfected cells. […] Reported Kd are expressed in nM. Bmax is expressed in fmol/10^6 cells.
Radioligand competition binding assay was performed using adherent living HEK293A cells transiently transfected with B2R or B2R^(Ø), as we previously described ([54]). […] Saturation binding assays were performed using adherent living HEK293A cells transiently transfected with B2R or B2R^(Ø). […] After the incubation time, cells were washed twice with ice-cold PBS, lysed with 200 μl of 0.1 N sodium hydroxide, and transferred into scintillation vials containing 4 ml scintillation liquid. The radioactivity was measured with a β-counter and data were analyzed using GraphPad 6.01 (GraphPad Software, Inc).

[2] = target: T2, mutant human B2R(Ø) lacking AltB2R expression (Gαq) (Homo sapiens, UniProt P30411); test: BRET G protein coupling Gαq-RLuc2/GFP10-Gγ1, B2R(Ø)-transfected HEK293A cells; assay type: cell-based; conditions: HEK293-A; relative to maximum B2R-induced BRET response; mean ± SD, n = 3; read-out: Emax, Gαq/Gγ1 dissociation, B2R(Ø)
T2 construct: expressed in transfected cells; host or cells: HEK293A
T2 sequence (P30411 1-391): T1 sequence (P30411 1-391)
Source text: (§1) To test this hypothesis, we used live-cell bioluminescence resonance energy transfer (BRET) measurements to monitor the activation of G proteins by B2R. HEK293A cells were cotransfected with vectors coding for Gαq-RlucII or Gαi2/3-RlucII, Gβ, GFP10-Gγ1, and B2R or B2R^(Ø). In this experimental setting, the dissociation of Gαq-RlucII or Gαi2/3-RlucII from GFP10-Gγ1 results in a decrease of BRET signals. BRET data in Figure 6, A–C are presented relative to the maximum B2R-induced BRET response.
(§2) D, β-arrestin2 recruitment at the plasma membrane after stimulation with NG291 in HEK293A cells transfected with B2R and B2R^(Ø) by following BRET proximity of β-arr2-RLuc2 and rGFP-CAAX. […] Note.
(§3) BRET assays were performed as previously described ([56]). Briefly, HEK293A cells were grown in 96-well plates for 48 h after transient transfection with 10 μg BRET constructs (Gαq-RLuc2, Gβ1, and GFP10-Gγ1) (Gαi2-Rluc2, Gβ1, and GFP10-Gγ1) (Gαi3-Rluc2, Gβ1, and GFP10-Gγ1) (β-arrestin2-Rluc2 and rGFP-CAAX) and B2R or B2R^(Ø). Cells were washed twice with stimulation buffer (10 mM HEPES pH 7.4, 1 mM CaCl2, 0.5 mM MgCl2, 4.2 mM KCl, 146 mM NaCl, 5.5 mM glucose) and incubated for 1 h in 80 μl stimulation buffer at room temperature. […] BRET readings were collected in the […] (Rluc2) and […] (GFP10) windows, and BRET signal was calculated as a ratio of GFP10 on Rluc2. […]

[3] = target: T3, mutant human B2R(Ø) lacking AltB2R expression (Gαi2) (Homo sapiens, UniProt P30411); test: BRET G protein coupling Gαi2-RLuc2/GFP10-Gγ1, B2R(Ø)-transfected HEK293A cells; assay type: cell-based; conditions: HEK293-A; relative to maximum B2R-induced BRET response; mean ± SD, n = 4; read-out: Emax, Gαi2/Gγ1 dissociation, B2R(Ø)
T3 construct: expressed in transfected cells; host or cells: HEK293A
T3 sequence (P30411 1-391): T1 sequence (P30411 1-391)
Source text: as §1, §2, §3

human B2R (Gαq) = target: T4, human B2R (Gαq) (Homo sapiens, UniProt P30411); test: BRET G protein coupling Gαq-RLuc2/GFP10-Gγ1, B2R-transfected HEK293A cells; assay type: cell-based; conditions: HEK293-A; relative to maximum B2R-induced BRET response; mean ± SD, n = 3; †p < 0.05 vs B2R(Ø); read-out: Emax, Gαq/Gγ1 dissociation, B2R
T4 construct: expressed in transfected cells; host or cells: HEK293A
T4 sequence (P30411 1-391): T1 sequence (P30411 1-391)
Source text: as §1, §2, §3

[4] = target: T5, mutant human B2R(Ø) lacking AltB2R expression (β-arrestin2) (Homo sapiens, UniProt P30411); test: BRET β-arrestin2 recruitment at the plasma membrane, B2R(Ø)-transfected HEK293A cells; assay type: cell-based
T5 construct: expressed in transfected cells; host or cells: HEK293A
T5 sequence (P30411 1-391): T1 sequence (P30411 1-391)
Source text: as §2
(§4) Since both G proteins and β-arrestins commonly participate in activation of MAPK pathways, we extended the BRET analysis to determine the effects of AltB2R on the efficacy of β-arrestin2 recruitment at the plasma membrane of HEK293A cells transfected with vectors coding for β-arrestin2-RLucII, rGFP-CAAX, and B2R or B2R^(Ø). BRET signals were monitored after addition of NG291.
as §3

[5] = test system: mutant human B2R(Ø) lacking AltB2R expression (ERK1/2 phosphorylation); test: ERK1/2 phosphorylation (AlphaLISA SureFire Ultra), B2R(Ø)- versus B2R-transfected HEK293A cells; assay type: cell-based; conditions: 1 μM agonist, n = 2
Method: (§5) To consolidate the western blot data, AlphaLISA assays were also conducted in parallel in the same cell lines for the quantitative analyses of B2R-stimulated ERK1/2 phosphorylation (Fig. 5, B and C).
(§6) Quantitative densitometry analysis of pERK1/2 levels over time (top right). pERK/total ERK ratios were calculated for each time point.

human B2R (Gαi2) = target: T6, human B2R (Gαi2) (Homo sapiens, UniProt P30411); test: BRET G protein coupling Gαi2-RLuc2/GFP10-Gγ1, B2R-transfected HEK293A cells; assay type: cell-based; conditions: HEK293-A; relative to maximum B2R-induced BRET response; mean ± SD, n = 4; ††p < 0.01 vs B2R(Ø); read-out: Emax, Gαi2/Gγ1 dissociation, B2R
T6 construct: expressed in transfected cells; host or cells: HEK293A
T6 sequence (P30411 1-391): T1 sequence (P30411 1-391)
Source text: as §1, §2, §3

human B2R (β-arrestin2) = target: T7, human B2R (β-arrestin2) (Homo sapiens, UniProt P30411); test: BRET β-arrestin2 recruitment at the plasma membrane, B2R-transfected HEK293A cells; assay type: cell-based; conditions: HEK293-A
T7 construct: expressed in transfected cells; host or cells: HEK293A
T7 sequence (P30411 1-391): T1 sequence (P30411 1-391)
Source text: as §2, §4, §3

human B2R (Gαi3) = target: T8, human B2R (Gαi3) (Homo sapiens, UniProt P30411); test: BRET G protein coupling Gαi3-RLuc2/GFP10-Gγ1, B2R-transfected HEK293A cells; assay type: cell-based; conditions: HEK293-A; relative to maximum B2R-induced BRET response; mean ± SD, n = 4; †p < 0.05 vs B2R(Ø); read-out: Emax, Gαi3/Gγ1 dissociation, B2R
T8 construct: expressed in transfected cells; host or cells: HEK293A
T8 sequence (P30411 1-391): T1 sequence (P30411 1-391)
Source text: as §1, §2, §3

[6] = target: T9, mutant human B2R(Ø) lacking AltB2R expression (Gαi3) (Homo sapiens, UniProt P30411); test: BRET G protein coupling Gαi3-RLuc2/GFP10-Gγ1, B2R(Ø)-transfected HEK293A cells; assay type: cell-based; conditions: HEK293-A; relative to maximum B2R-induced BRET response; mean ± SD, n = 4; read-out: Emax, Gαi3/Gγ1 dissociation, B2R(Ø)
T9 construct: expressed in transfected cells; host or cells: HEK293A
T9 sequence (P30411 1-391): T1 sequence (P30411 1-391)
Source text: as §1, §2, §3

[7] = target: T1, mutant human B2R(Ø) lacking AltB2R expression; test: Inositol phosphate (IP1) production, IP-One Gq assay (FRET), B2R(Ø)-transfected HEK293A cells (lacking AltB2R); assay type: cell-based; conditions: for Emax: HEK293-A, Emax in B2R(Ø) versus B2R cells, read-out: reduction of efficacy (Emax) for IP1 formation in cells without AltB2R expression
Method: This construct is a monocistronic version of B2R with the mutation C168T. In this mutant, a premature stop codon is introduced in the AltB2R coding sequence (Q11stop) in a manner synonymous for B2R (L56 L). Thus, the B2R encodes B2R and AltB2R, whereas mutant B2R^(Ø) encodes only B2R.
as §5, §6
HeLa, HEK293T, and HEK293A cells were maintained in Dulbecco's modified Eagle's medium (DMEM) containing 10% fetal bovine serum (FBS) (Wisent, #080-450) and 1% antibiotic-antimycotic (Wisent, #450-115-EL) under standard conditions. HEK293A cells were transiently transfected with the pcDNA3.1-vector containing the cDNA of human B2R or B2R^(Ø), using polyethylenimine (PEI) or JetPrime (Polyplus). HeLa cells were transiently transfected with B2R and AltB2R constructs using GeneCellin (Bulldog Bio Inc) or JetPrime (Polyplus) transfection reagent, as per the manufacturer’s instructions, and incubated 24 h at 37 °C, unless otherwise stated.
Inositol monophosphate (IP1) production was determined using the IP-One Gq assay kits (Cisbio, #62IPAPEB), according to the manufacturer's instructions. Fluorescence resonance energy transfer (FRET) signals were measured with a Tecan M1000 plate reader.

binding affinity, B2R versus B2R(Ø) [1]: same affinities
Compound: CC(=O)Nc1ccc(/C=C/C(=O)NCC(=O)N(C)c2ccc(Cl)c(COc3cccc4ccc(C)nc34)c2Cl)cn1 [FR173657]

Emax [2]: 74 ± 8% | Emax [3]: 66 ± 12% | Emax (human B2R (Gαq)): 100 ± 10% | binding affinity, B2R versus B2R(Ø) [1]: same affinities | Emax ([4]; HEK293-A, β-arr2-RLuc2 and rGFP-CAAX, mean ± SD, n = 3): 88 ± 9% | Emax (human B2R (Gαi2)): 100 ± 11% | Emax (human B2R (β-arrestin2)): 100 ± 10% | Emax (human B2R (Gαi3)): 100 ± 21% | Emax [6]: 60 ± 22% | Emax [7]: 22%
Compound: N=C(N)NCCC[C@H](NC(=O)[C@H](Cc1cccs1)NC(=O)CN(C(=O)[C@H](CO)NC(=O)[C@H](Cc1cccs1)NC(=O)CNC(=O)[C@@H]1C[C@@H](O)CN1C(=O)[C@@H]1CCCN1C(=O)[C@@H](N)CCCNC(=N)N)C1CCCCC1)C(=O)O [NG291, [Hyp^3,Thi^5,^NChg^7,Thi^8]-BK] (H-RP[Hyp]G[2Thi]S[Gly(N-cHex)][2Thi]R-OH; N-terminus and C-terminus assumed)
recruitment of β-arrestin2, cells expressing or not AltB2R ([4]; BRET, B2R versus B2R(Ø), BK: data not shown): no difference in the recruitment of β-arrestin2 | maximal levels of phospho-ERK1/2 (AlphaLISA), B2R(Ø) versus B2R [5]: decreased maximal levels of phospho-ERK1/2 | potency (EC50) for IP1 formation, B2R- versus B2R(Ø)-transfected cells ([7]; comparison of EC50 between B2R and B2R(Ø), unpaired t-test): no significant difference in potencies (EC50 values)

Compound: COc1ccc(C[C@@H](CN[C@@H](CCCNC(=N)N)C(=O)O)NC(=O)[C@@H]2CCCN2C(=O)[C@H](CO)NC(=O)[C@H](Cc2cccs2)NC(=O)CNC(=O)[C@@H]2C[C@@H](O)CN2C(=O)[C@@H]2CCCN2C(=O)[C@@H](N)CCCNC(=N)N)cc1 [RMP-7, [Hyp^3,Thi^5,(4-Me)Tyr^8(ΨCH2NH)Arg^9]-BK] (HELM PEPTIDE1{R.P.[Hyp].G.[O=C([C@H](Cc1cccs1)N[*:1])[*:2]].S.P.[COc1ccc(C[C@@H](CN[C@@H](CCCNC(=N)N)C(=O)O)N[*:1])cc1]}$$$$V2.0)
Emax [7]: 16%

Compound: RPPGFSPFR [BK, H-Arg^1-Pro^2-Pro^3-Gly^4-Phe^5-Ser^6-Pro^7-Phe^8-Arg^9-OH]
binding affinity, B2R versus B2R(Ø) [1]: same affinities
